Data on six compounds can be found in patent US12187767B2 (priority 2021, dated 2025).

Common to all, as to type: cell-based
The test system of series [1] is MCF-7 cells. Put plainly: Acetylcholinesterase (AchE) assay of exosome/EV release. The following applies: MCF-7 cells; for average AChE concentrations throughout days 1 to day 5: five-day treatment at 37° C.; for AchE concentrations on day 3 / AchE concentrations, initial increase: five-day treatment; for AchE concentrations on day 3: mock 69.15; for AchE concentrations, initial increase: initial increase on days 1 and/or 2, mock 155.13. How it is done:
(§1) 1.3. EV isolation and purification. EVs were isolated from cells by differential centrifugation as previously described (Ali SA. et al., 2010). Untreated cells were used as a control. Briefly, the above treated and untreated cell culture supernatants were centrifuged at 400×g for 10 minutes. The supernatants were transferred to a clear tube and centrifuged at 10,000×g for 30 minutes. The supernatants from the second spin were […] ultracentrifuged at 200,000×g for 2 hours to pellet the EVs. Finally, the EV pellets were re-suspended with PBS and stored at 4° C. until used for analysis.
(§2) 1.4. Exosome characterization by acetylcholinesterase (AchE) assay. Purified EVs were quantitated by measurement of AchE as described (Ellman et al., 1961). Briefly, a 100 mM dithibionitrobenzoic (DTNB) solution was prepared for use as a stock color indicator, and a 28.9 mg/mL acetylthiocholine iodide in PBS solution was prepared as a stock substrate. The stock substrate stock can be stored at −20° C. up to one month, while the color indicator can be stored at 4° C. for two weeks. A working solution was prepared by mixing 10 mL of PBS with 200 μL of Substrate and 500 μl of DTNB. 50 μL of each exosome sample was transferred to 96 well microtitre plates, and a standard curve was prepared using AchE from 0.98 mU/mL to 2000 mU/mL. After 50 μL of standards were added into separate wells, 200 μL of the working solution was added to all wells. After 20 min incubation, AchE activity was measured at 450 nm using a SpectroMax M5 fluorimeter.

Series [2] concerns MDA-MB-231 cells. Described as above. The following applies: MDA-MB-231 cells; for average AChE concentration levels throughout day 1 to 5: five-day treatment at 37° C.; for AChE on day 1 (initial increase): five-day treatment, mock 146.52. How it is done:
as §1, §2

Series [3] concerns MCF-7, MDA-MB-231 and K562 cells. Put plainly: Exosome/EV release, overall statements across cell lines (AchE, NanoSight, Western blot). The following applies: MCF-7, MDA-MB-231 and K562 cells; five days at 37° C.; AchE assay. The protocol:
Acetylcholinesterase (AchE) assays, NanoSight analysis and Western blot analysis were performed to characterize EVs released from MCF-7 and MDA-MB-231 cells treated for 48 hr with the various peptides.
To further examine the underlying mechanism for blocking exosome release, a study was extended to examine the effects of the SMRwt peptides, PEG-SMRwt-Clu peptide and SMRwt-CPP peptide, and the mortalin inhibitors MKT-077, Omeprazole, and DMA on exosome release. In particular, acetylcholinesterase (AchE) assays, NanoSight analysis and Western blot analysis were performed to characterize EVs released from MCF-7, MDA-MB-231 and K562 cells. Panels A, B and C depict the relative numbers of EVs released as a function of time as measured by an acetylcholinesterase (AchE) assay in MCF-7 cells (FIG. 6, Panel A); MDA-MB-231 cells (FIG. 6, Panel B); and K562 cells (FIG. 6, Panel C).

Series [4] relates to MCF-7 cells. Put plainly: Western blot analysis of EV protein content. The following applies: 48 hours treatment; for Alix expression in EVs / Vimentin expression in EVs: relative to negative controls. How it is done:
as §1
(§3) 1.6. Western blot analysis. EVs were isolated from culture supernatants as described above. Protein concentrations were determined by measuring absorbance at 280 nm (Nanodrop 2000). Protein samples were denatured in SDS-PAGE sample buffer by heating at 95° C. for 15 min. Criterion TGX Precast Gels (4-20% Bio-Rad, Richmond, CA) were used to separate the proteins and blotted as previously described (Huang MB. et al 2004). Blots were incubated with the primary antibodies, anti-CD63 and anti-Alix, followed by goat or rabbit anti-Ig secondary antibodies. Specific bands were detected using ECL chemiluminescent substrate (Santa Cruz Biotechnology, Santa Cruz, CA) and visualized on the ImageQuant LAS 4000 imaging system (GE Healthcare, Piscataway, NJ 08854).
(§4) Western blot analysis was used to examine the effects of the SMRwt peptides, PEG-SMRwt-Clu peptide and SMRwt-CPP peptide, and the mortalin inhibitors MKT-077, Omeprazole, and DMA on EV protein content in MCF-7, MDA-MB-231 and K562 cells. Negative control treatments included the PEG-SMRmut-Clu peptide, […] (SEQ ID NO: 49) and the SMRmut-CPP peptide, […] (SEQ ID NO: 50). EVs were isolated from all treated and untreated cell lines screened. Western blot analyses were carried out to evaluate the expression levels of the exosomal proteins, Alix, mortalin, and vimentin in MCF-7 cells (FIG. 7, Panel A, left sub-panel), MDA-MB-231 cells (FIG. 7, Panel A, middle sub-panel), and K562 cells (FIG. 7, Panel A, right sub-panel).

A further series concerns K562 cells. The series can be described thus: Western blot analysis of EV protein content. The following applies: 48 hours treatment. The protocol:
as §1, §3, §4
In general terms: A western blot detects proteins with antibodies after separation by electrophoresis.

Series [5] concerns MDA-MB-231 cells. The series can be described thus: Western blot analysis of EV protein content. As to conditions: 48 hours treatment. The protocol:
as §1, §3, §4

Series [6] has as its system K562, MCF-7 and MDA-MB-231 cultures. The series can be described thus: Complement-mediated cytotoxicity, overall statements across cell lines. As to conditions: peptide, then anti-CXCR4 antibody and NHS. The protocol: Therefore, it was of interest to see whether SMR peptide driven mortalin sequestration and functional disruption increases cell sensitivity to complement-induced cell death. Accordingly, MCF-7, MDA-MB-231, and K562 cells were treated with 280 nM PEG-SMRwt-Clu peptide or 560 nM SMRwt-CPP peptide alone for 60 min at 37° C., followed by treatment with 1 μg/mL anti-CXCR4 antibody and 50 μL normal human serum (NHS; as a source of complement) or normal heat-inactivated (human) serum (NIS) for an additional 60 min at 37° C. (FIG. 8). PEG-SMRmut-Clu peptide and SMRmut-CPP peptide were used as negative controls. The percentage of stained (dead) cells was determined by trypan blue exclusion and is representative of 3 independent experiments.
To further validate the ability of mortalin neutralization to render or enhance complement-mediated cytotoxicity, MCF-7, MDA-MB-231 and K562 cells were transfected with vectors expressing mortalin siRNAs or negative control siRNAs, incubated for 72 hours at 37° C., treated with anti-CXCR4 antibody for 30 minutes at 4° C. followed by incubation with either NHS or NIS for 60 minutes at 37° C.

“Also recorded” adds a separate entry of the source. Ends that are not written are not given here.

`CN(C)c1nc(N)c(C(=O)NC(=N)N)nc1Cl` [DMA, 5-(N,N-Dimethyl)amiloride]: the “average AChE concentrations throughout days 1 to day 5” value in the series on MCF-7 cells [1] is on record as 26 mU/mL. In the series with MDA-MB-231 cells [2], the “average AChE concentration levels throughout day 1 to 5” value was found to be 37 mU/mL. The “exosome/EV release (number of EVs released)” value (from here on “exosome/EV release”) in series [3] is “reduced the number of EVs released; also recorded: blocked exosome release”. Besides, in the series with MCF-7 cells [4], the “Mortalin expression in EVs” value was “no significant changes”, the “Alix expression in EVs” value is recorded as “not accompanied by significant reductions” and the “Vimentin expression in EVs” value is recorded as “significantly decreased”. In addition, in the series on K562 cells, the “Alix expression in EVs” value is listed as “significantly decreased”, the “Mortalin expression in EVs” value was “significantly decreased” and the “Vimentin expression in EVs” value is “significantly increased”. Moreover, the “Vimentin expression in EVs” value in the series on MDA-MB-231 cells [5] is listed as “significantly decreased”.

On to `CCn1c(=Cc2cccc[n+]2CC)sc(=C2Sc3ccccc3N2C)c1=O.[Cl-]` [MKT-077, 1-Ethyl-2-[[3-ethyl-5-(3-methyl-2(3H)-benzothiazolylidene)-4-oxo-2-thiazolidinylidene]methyl]-pyridinium chloride], for which the “average AChE concentrations throughout days 1 to day 5” value with MCF-7 cells [1] worked out at 22 mU/mL. Also, the “average AChE concentration levels throughout day 1 to 5” value in the series on MDA-MB-231 cells [2] worked out at 29 mU/mL. Also, in series [3], the “exosome/EV release” value is “reduced the number of EVs released; also recorded: blocked exosome release”. Besides, in the series with MCF-7 cells [4], the “Mortalin expression in EVs” value is “significantly decreased”, the “Alix expression in EVs” value is “significantly decreased” and the “Vimentin expression in EVs” value is “significantly decreased”. Further, in the series on K562 cells, the “Alix expression in EVs” value is reported as “significantly decreased”, the “Mortalin expression in EVs” value is “significantly decreased” and the “Vimentin expression in EVs” value is listed as “significantly increased”. For the same compound, in the series on MDA-MB-231 cells [5], the “Mortalin expression in EVs” value is reported as “No significant change” and the “Vimentin expression in EVs” value is recorded as “no significant change”.

For `COc1ccc2[nH]c([S+]([O-])Cc3ncc(C)c(OC)c3C)nc2c1` (stereo not drawn) [Omeprazole, 5-Methoxy-2-[[(4-methoxy-3,5-dimethyl-2-pyridinyl)methyl]sulfinyl]-1H-benzimidazole], the “average AChE concentrations throughout days 1 to day 5” value in the series on MCF-7 cells [1] was determined as 26 mU/mL. Further, in the series on MDA-MB-231 cells [2], the “average AChE concentration levels throughout day 1 to 5” value stood at 25 mU/mL. Moreover, the “exosome/EV release” value in series [3] is recorded as “reduced the number of EVs released; also recorded: blocked exosome release”. Also, in the series on MCF-7 cells [4], the “Mortalin expression in EVs” value is on record as “no significant changes”, the “Alix expression in EVs” value is “not accompanied by significant reductions” and the “Vimentin expression in EVs” value was “significantly decreased”. Further, in the series on K562 cells, the “Alix expression in EVs” value is reported as “significantly decreased”, the “Mortalin expression in EVs” value was “significantly decreased” and the “Vimentin expression in EVs” value is “significantly increased”. In addition, in the series with MDA-MB-231 cells [5], the “Mortalin expression in EVs” value is “No significant change” and the “Vimentin expression in EVs” value was “no significant change”.

Consider “AGFPVAAAGFPVGRKKRRQRRRPPQ (SEQ ID NO: 50) (Synthetic SMRmut-CPP)”, for which, in the series with MCF-7 cells [1], the “AchE concentrations on day 3” value amounted to 66.05 mU/mL and the “AchE concentrations, initial increase” value was found to be 150.06 mU/mL. Moreover, the “AChE on day 1 (initial increase)” value in the series with MDA-MB-231 cells [2] came out at 141.47 mU/mL.

Take “NXNAGFPVAAAGFPVHPLSKHPYWSQP (SEQ ID NO: 49) [PEG-SMRmut-Clu]”: in the series with MCF-7 cells [1], the “AchE concentrations on day 3” value is on record as 69.0 mU/mL and the “AchE concentrations, initial increase” value was determined as 151.5 mU/mL. Further, the “AChE on day 1 (initial increase)” value in the series on MDA-MB-231 cells [2] is reported as 146.79 mU/mL.

VGFPVAAVGFPVGRKKRRQRRRPPQ [SMRwt-CPP]: in series [6], the “complement-mediated cytotoxicity / cell death in the presence of NHS” value was “induce complement-mediated cytotoxicity”.
